Results on 27 molecules are retold here after patent US20160060260A1, “BROMODOMAIN INHIBITORS FOR TREATING DISEASE” (Board of Regents, The University of Texas System, priority 2014, published 2016).

In this assay the target is T1, Recombinant human His-tagged Trim24-PHD-bromodomain (Homo sapiens, UniProt O15164).
T1 construct: Recombinant human His-tagged Trim24-PHD-bromodomain (produced in-house); made in house
T1 sequence (O15164 824-1006 limits assumed): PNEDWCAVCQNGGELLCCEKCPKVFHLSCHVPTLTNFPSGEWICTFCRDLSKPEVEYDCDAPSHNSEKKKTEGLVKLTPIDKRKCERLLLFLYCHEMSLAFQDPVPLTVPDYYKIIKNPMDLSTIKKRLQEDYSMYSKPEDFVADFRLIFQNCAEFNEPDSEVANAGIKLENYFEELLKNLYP
The assay is described as follows: Trim24 AlphaScreen Assay. The format is binding. As to conditions: 5 nM Trim24 protein, 15 nM biotinylated H3K23ac (1-33aa) peptide. As for the experimental part:
Recombinant human His-tagged Trim24-PHD-bromodomain (produced in-house), biotinylated H3K23ac (1-33aa) peptide (AnaSpec, Inc.), and test compound were added to a 384-well OptiPlate (Perkin Elmer) and incubated at room temperature for one hour. The assay buffer consisted of 50 mM Hepes, pH 7.5, 100 mM NaCl, and 0.12 mM Triton X-100.
Streptavidin donor beads and nickel chelate acceptor beads, both from a Perkin Elmer AlphaScreen Histidine Detection Kit, were then added to the Optiplate to a final concentration of 10 ug/mL each. Following a 2 hour incubation at room temperature, the microplate was read on an Envision Plate Reader (Perkin Elmer). Percent of control (POC) values were calculated from the following formula:
POC=[sample signal-average background signal]/[average maximum signal−average background signal]*100
The average maximum signal was obtained from wells containing all assay components except test compound. The average background signal pertained to wells with all assay components except Trim24 and test compound. IC50 values were calculated using a four-parameter logistic curve fit.
For orientation: In Alpha technology, singlet oxygen from a donor bead excites a nearby acceptor bead.
The IC50 is the midpoint of a concentration-inhibition curve. For `CCCOc1cccc(Oc2cc3c(cc2NS(=O)(=O)c2cn(C)c(C)n2)n(C)c(=O)n3C)c1` [Example 61, N-(1,3-dimethyl-2-oxo-6-(3-propoxyphenoxy)-2,3-dihydro-1H-benzo[d]imidazol-5-yl)-1,2-dimethyl-1H-imidazole-4-sulfonamide], the concentration for half-maximal inhibition (IC50) is 10 to 100 nM.

For the molecule `CCC(C)COc1cccc(Oc2cc3c(cc2NS(=O)(=O)c2cn(C)c(C)n2)n(C)c(=O)n3C)c1` (stereo not drawn) [Example 62, N-(1,3-dimethyl-6-(3-(2-methylbutoxy)phenoxy)-2-oxo-2,3-dihydro-1H-benzo[d]imidazol-5-yl)-1,2-dimethyl-1H-imidazole-4-sulfonamide], the half-maximal inhibitory concentration (IC50) lay within 100 to 1000 nM.

For the molecule `COc1cccc(Oc2cc3c(cc2NS(=O)(=O)c2cn(C)cn2)n(C)c(=O)n3C)c1` [Example 63, N-(6-(3-methoxyphenoxy)-1,3-dimethyl-2-oxo-2,3-dihydro-1H-benzo[d]imidazol-5-yl)-1-methyl-1H-imidazole-4-sulfonamide], the IC50 is 100 to 1000 nM.

Turning to `Cn1cnc(S(=O)(=O)Nc2cc3c(cc2Oc2cccc(OCC4CCOC4)c2)n(C)c(=O)n3C)c1` (stereo not drawn) [Example 64, N-(1,3-dimethyl-2-oxo-6-(3-((tetrahydrofuran-3-yl)methoxy)phenoxy)-2,3-dihydro-1H-benzo[d]imidazol-5-yl)-1-methyl-1H-imidazole-4-sulfonamide], the IC50 lay within 100 to 1000 nM.

With `Cn1cnc(S(=O)(=O)Nc2cc3c(cc2Oc2cccc(OCC4CCOCC4)c2)n(C)c(=O)n3C)c1` [Example 65, N-(1,3-dimethyl-2-oxo-6-(3-((tetrahydro-2H-pyran-4-yl)methoxy)phenoxy)-2,3-dihydro-1H-benzo[d]imidazol-5-yl)-1-methyl-1H-imidazole-4-sulfonamide], the half-inhibitory concentration (IC50) lay within 100 to 1000 nM.

Turning to `COc1cc(OCC(C)C)cc(Oc2cc3c(cc2NS(=O)(=O)c2cn(C)c(C)n2)n(C)c(=O)n3C)c1` [Example 66, N-(6-(3-isobutoxy-5-methoxyphenoxy)-1,3-dimethyl-2-oxo-2,3-dihydro-1H-benzo[d]imidazol-5-yl)-1,2-dimethyl-1H-imidazole-4-sulfonamide], the concentration for half-maximal inhibition (IC50) was 10 to 100 nM.

Turning to `Cc1nc(S(=O)(=O)Nc2cc3c(cc2Oc2cccc(OCC(F)(F)F)c2)n(C)c(=O)n3C)cn1C` [Example 67, N-(1,3-dimethyl-2-oxo-6-(3-(2,2,2-trifluoroethoxy)phenoxy)-2,3-dihydro-1H-benzo[d]imidazol-5-yl)-1,2-dimethyl-1H-imidazole-4-sulfonamide], the half-inhibitory concentration (IC50) lay within 10 to 100 nM.

Turning to `COCCCOc1cccc(Oc2cc3c(cc2NS(=O)(=O)c2cn(C)cn2)n(C)c(=O)n3C)c1` [Example 68, N-(6-(3-(3-methoxypropoxy)phenoxy)-1,3-dimethyl-2-oxo-2,3-dihydro-1H-benzo[d]imidazol-5-yl)-1-methyl-1H-imidazole-4-sulfonamide], the 50% inhibitory concentration (IC50) was 100 to 1000 nM.

Take `COc1cc(OCC(C)C)cc(Oc2cc3c(cc2NS(=O)(=O)C2CC2)n(C)c(=O)n3C)c1` [Example 69, N-(6-(3-isobutoxy-5-methoxyphenoxy)-1,3-dimethyl-2-oxo-2,3-dihydro-1H-benzo[d]imidazol-5-yl)cyclopropanesulfonamide]: the IC50 fell in the range of 10 to 100 nM.

As to `C=C(C)COc1cccc(Oc2cc3c(cc2NS(=O)(=O)c2cn(C)cn2)n(C)c(=O)n3C)c1` [Example 70, N-(1,3-dimethyl-6-(3-((2-methylallyl)oxy)phenoxy)-2-oxo-2,3-dihydro-H-benzo[d]imidazol-5-yl)-1-methyl-1H-imidazole-4-sulfonamide], the IC50 was 10 to 100 nM.

`Cn1cnc(S(=O)(=O)Nc2cc3c(cc2Oc2cccc(OCC(F)(F)F)c2)n(C)c(=O)n3C)c1` [Example 71, N-(1,3-dimethyl-2-oxo-6-(3-(2,2,2-trifluoroethoxy)phenoxy)-2,3-dihydro-1H-benzo[d]imidazol-5-yl)-1-methyl-1H-imidazole-4-sulfonamide]: the half-maximal inhibitory concentration (IC50) was 10 to 100 nM.

On to `Cn1cc(S(=O)(=O)Nc2cc3c(cc2Oc2cccc(OCC(F)(F)F)c2)n(C)c(=O)n3C)cn1` [Example 72, N-(1,3-dimethyl-2-oxo-6-(3-(2,2,2-trifluoroethoxy)phenoxy)-2,3-dihydro-1H-benzo[d]imidazol-5-yl)-1-methyl-1H-pyrazole-4-sulfonamide], for which the concentration for half-maximal inhibition (IC50) lay in the range of 10 to 100 nM.

Turning to `Cn1cc(S(=O)(=O)Nc2cc3c(cc2Oc2cccc(OC(F)(F)F)c2)n(C)c(=O)n3C)cn1` [Example 73, N-(1,3-dimethyl-2-oxo-6-(3-(trifluoromethoxy)phenoxy)-2,3-dihydro-1H-benzo[d]imidazol-5-yl)-1-methyl-1H-pyrazole-4-sulfonamide], the IC50 was more than 1000 nM.

For `C=CCOc1cccc(Oc2cc3c(cc2NS(=O)(=O)c2cn(C)cn2)n(C)c(=O)n3C)c1` [Example 74, N-(6-(3-(allyloxy)phenoxy)-1,3-dimethyl-2-oxo-2,3-dihydro-1H-benzo[d]imidazol-5-yl)-1-methyl-1H-imidazole-4-sulfonamide], the IC50 was in the range of 100 to 1000 nM.

Regarding `CCCOc1cccc(Oc2cc3c(cc2NS(=O)(=O)c2cnn(C)c2)n(C)c(=O)n3C)c1` [Example 75, N-(1,3-dimethyl-2-oxo-6-(3-propoxyphenoxy)-2,3-dihydro-1H-benzo[d]imidazol-5-yl)-1-methyl-1H-pyrazole-4-sulfonamide], the IC50 lay within 10 to 100 nM.

Turning to `Cn1cnc(S(=O)(=O)Nc2cc3c(cc2Oc2cccc(OCC#N)c2)n(C)c(=O)n3C)c1` [Example 76, N-(6-(3-(cyanomethoxy)phenoxy)-1,3-dimethyl-2-oxo-2,3-dihydro-1H-benzo[d]imidazol-5-yl)-1-methyl-1H-imidazole-4-sulfonamide], the IC50 was in the range of 100 to 1000 nM.

As to `CCn1cc(S(=O)(=O)Nc2cc3c(cc2Oc2cccc(OCc4ccccc4)c2)n(C)c(=O)n3C)cn1` [Example 77, N-(6-(3-(benzyloxy)phenoxy)-1,3-dimethyl-2-oxo-2,3-dihydro-1H-benzo[d]imidazol-5-yl)-1-ethyl-1H-pyrazole-4-sulfonamide], the half-inhibitory concentration (IC50) fell in the range of 100 to 1000 nM.

Turning to `Cn1c(=O)n(C)c2cc(Oc3cccc(OCc4ccccc4)c3)c(NS(=O)(=O)c3c[nH]cn3)cc21` [Example 78, N-(6-(3-(benzyloxy)phenoxy)-1,3-dimethyl-2-oxo-2,3-dihydro-1H-benzo[d]imidazol-5-yl)-1H-imidazole-4-sulfonamide], the IC50 was in the range of 100 to 1000 nM.

`Cc1cc(S(=O)(=O)Nc2cc3c(cc2Oc2cccc(OCc4ccccc4)c2)n(C)c(=O)n3C)n(C)n1` [Example 79, N-(6-(3-(benzyloxy)phenoxy)-1,3-dimethyl-2-oxo-2,3-dihydro-1H-benzo[d]imidazol-5-yl)-1,3-dimethyl-1H-pyrazole-5-sulfonamide]: the IC50 was more than 1000 nM.

For `Cn1ccnc1S(=O)(=O)Nc1cc2c(cc1Oc1cccc(OCc3ccccc3)c1)n(C)c(=O)n2C` [Example 80, N-(6-(3-(benzyloxy)phenoxy)-1,3-dimethyl-2-oxo-2,3-dihydro-1H-benzo[d]imidazol-5-yl)-1-methyl-1H-imidazole-2-sulfonamide], the IC50 was more than 1000 nM.

`Cn1c(=O)n(C)c2cc(Oc3cccc(OCc4ccccc4)c3)c(NS(=O)(=O)CCO)cc21` [Example 81, N-(6-(3-(benzyloxy)phenoxy)-1,3-dimethyl-2-oxo-2,3-dihydro-1H-benzo[d]imidazol-5-yl)-2-hydroxyethane-1-sulfonamide]: the half-maximal inhibitory concentration (IC50) is more than 1000 nM.

For `CCCOc1cccc(Oc2cc3c(cc2NS(=O)(=O)C2CC2)n(C)c(=O)n3C)c1` [Example 82, N-(1,3-dimethyl-2-oxo-6-(3-propoxyphenoxy)-2,3-dihydro-1H-benzo[d]imidazol-5-yl)cyclopropanesulfonamide], the IC50 was 100 to 1000 nM.

`CCCOc1cccc(Oc2cc3c(cc2NS(=O)(=O)c2cn(C)cn2)n(C)c(=O)n3C)c1` [Example 83, N-(1,3-dimethyl-2-oxo-6-(3-propoxyphenoxy)-2,3-dihydro-1H-benzo[d]imidazol-5-yl)-1-methyl-1H-imidazole-4-sulfonamide]: the IC50 lay in the range of 10 to 100 nM.

For `Cn1cnc(S(=O)(=O)Nc2cc3c(cc2Oc2cccc(OCCCC(F)(F)F)c2)n(C)c(=O)n3C)c1` [Example 84, N-(1,3-dimethyl-2-oxo-6-(3-(4,4,4-trifluorobutoxy)phenoxy)-2,3-dihydro-1H-benzo[d]imidazol-5-yl)-1-methyl-1H-imidazole-4-sulfonamide], the half-inhibitory concentration (IC50) fell in the range of 100 to 1000 nM.

Consider `CCCOc1cccc(Oc2cc3c(cc2NS(=O)(=O)CCOC)n(C)c(=O)n3C)c1` [Example 85, N-(1,3-dimethyl-2-oxo-6-(3-propoxyphenoxy)-2,3-dihydro-1H-benzo[d]imidazol-5-yl)-2-methoxyethane-1-sulfonamide], for which the half-maximal inhibitory concentration (IC50) was in the range of 100 to 1000 nM.

As for `CCCOc1cccc(Oc2cc3c(cc2NS(=O)(=O)c2c[nH]cn2)n(C)c(=O)n3C)c1` [Example 86, N-(1,3-dimethyl-2-oxo-6-(3-propoxyphenoxy)-2,3-dihydro-1H-benzo[d]imidazol-5-yl)-1H-imidazole-4-sulfonamide], the half-maximal inhibitory concentration (IC50) was 10 to 100 nM.

For `CCCOc1cccc(Oc2cc3c(cc2NS(=O)(=O)c2nnc[nH]2)n(C)c(=O)n3C)c1` [Example 87, N-(1,3-diemthyl-2-oxo-6-(3-propoxyphenoxy)-2,3-dihydro-1H-benzo[d]imidazol-5-yl)-4H-1,2,4-triazole-3-sulfonamide], the concentration for half-maximal inhibition (IC50) lay within 100 to 1000 nM.
